This note sets out measurements from patent publication US7420001B2 (Wyeth, priority 2003, dated 2008).

The target of one assay is T1, MMP-2 (Homo sapiens, UniProt P08253).
T1 construct: purchased Oncogene Research Products (Calbiochem) PF023
T1 sequence (P08253 110-660): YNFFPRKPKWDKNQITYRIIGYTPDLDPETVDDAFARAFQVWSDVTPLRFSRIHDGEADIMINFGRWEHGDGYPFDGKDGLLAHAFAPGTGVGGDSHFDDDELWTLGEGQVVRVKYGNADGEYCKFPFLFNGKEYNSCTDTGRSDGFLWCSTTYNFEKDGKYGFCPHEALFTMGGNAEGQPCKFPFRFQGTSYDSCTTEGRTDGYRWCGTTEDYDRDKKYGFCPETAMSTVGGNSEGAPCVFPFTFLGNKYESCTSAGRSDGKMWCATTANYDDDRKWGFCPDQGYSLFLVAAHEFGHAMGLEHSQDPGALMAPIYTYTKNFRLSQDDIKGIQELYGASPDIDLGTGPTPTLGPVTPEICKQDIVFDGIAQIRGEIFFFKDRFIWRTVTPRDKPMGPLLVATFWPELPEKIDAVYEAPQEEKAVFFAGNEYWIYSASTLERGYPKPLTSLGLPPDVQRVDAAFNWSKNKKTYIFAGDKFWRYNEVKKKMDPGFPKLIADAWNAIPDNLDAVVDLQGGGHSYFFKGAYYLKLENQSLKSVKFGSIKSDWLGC
Nature of the assay: In-vitro fluorescence assay of MMP-2 activity. In kind it is biochemical. Particulars: recombinant human MMP-2; read-out: MMP-2 IC50.

The next assay concerns the target T2, MMP-13 (Homo sapiens, UniProt P45452).
T2 construct: made in house
Nature of the assay: In-vitro fluorescence assay of MMP-13 activity. In kind it is biochemical.

Where [1] appears, read: recombinant human catalytic domain of MMP-13, read-out: MMP-13 IC50.

Where two headings read alike, the source gives them in different places.

Excerpt for MMP-2: A continuous assay was used in which the substrate is a synthetic peptide containing a fluorescent group (7-methoxycoumarin; Mca) which is quenched by energy transfer to a 2,4-dinitrophenyl group. […] The source of enzyme in the assay was the recombinant human MMP-2 (66 kDa) purchased from Oncogene Research Products (catalog number PF023 from Calbiochem). The substrate used was Mca-PQGL-(3-[2,4-dinitrophenyl]-L-2,3-diaminopropionyl)-AR-OH (denoted as Wammp-5, custom synthesized by AnaSpec, Inc.). The assay buffer consisted of 50 mM Hepes (pH 7.4), 100 mM NaCl, 5 mM CaCl2, and 0.005% Brij-35. […] The enzymatic reactions were initiated by adding the substrate to a final concentration of 20 μM, and mixing 10 times with a pipette. The final DMSO concentration in the assay was 6.0%.
Plots of the inhibitor concentration vs. the percent inhibition were fit to the following equation: y=(a−d)/[1+(x/c)^b]+d, a general sigmoidal curve with Hill slope, a to d. x is the inhibitor concentration under test. y is the percent inhibition. a is the limiting response as x approaches zero. As x increases without bound, y tends toward its limit d. c is the inflection point (IC50) for the curve. That is, y is halfway between the lower and upper asymptotes when x=c. b is the slope factor or Hill coefficient.

By IC50 is commonly meant the concentration needed to halve the response being measured. As to `CC(Oc1cccc2oc(C(=O)Nc3ccc(-c4ccc(S(=O)(=O)N[C@H](C(=O)O)C(C)C)cc4)cc3)cc12)C(=O)O` (stereo partly drawn) [Example 14, 4′-{[4-(1-Carboxy-ethoxy)-benzofuran-2-carbonyl]-amino}-biphenyl-4-sulfonyl-L-valine], the results for the IC50 at MMP-2 and at MMP-13 (setting [1]) were 0.916 µM and 0.011 µM, respectively.
On the same counts, the results for `Cc1c(COc2ccc(-c3ccc(S(=O)(=O)N[C@@H](C(=O)O)C(C)C)cc3)cc2)oc2ccc(Br)c(OC(C)C)c12` [Example 149, N-({4′-[(5-Bromo-4-isopropoxy-3-methyl-1-benzofuran-2-yl)methoxy]-1,1′-biphenyl-4-yl}sulfonyl)-D-valine] are 0.375 µM and 0.0079 µM.
As for `Cc1cccc2oc(C(=O)Nc3ccc(-c4ccc(S(=O)(=O)N[C@H](C(=O)O)C(C)C)cc4)cc3)c(C)c12` [Example 93, N-[(4′-{[(3,4-Dimethyl-1-benzofuran-2-yl)carbonyl]amino}-1,1′-biphenyl-4-yl)sulfonyl]-L-valine], the IC50 on MMP-2 is 1.15 µM; on MMP-13 (setting [1]) it was 0.0048 µM.
In the case of `Cc1c(C(=O)Nc2ccc(-c3ccc(S(=O)(=O)N[C@H](C(=O)O)C(C)C)cc3)cc2)oc2cccc(C#CC3CC3)c12` [Example 23, 2-{4′-[(4-Cyclopropylethynyl-3-methyl-benzofuran-2-carbonyl)-amino]-biphenyl-4-sulfonylamino}-3-methyl-butyric acid], the results for the IC50 on MMP-2 and at MMP-13 (setting [1]) were 3 µM and 0.021 µM, respectively.
The like results for `C=Cc1cccc2oc(C(=O)Nc3ccc(-c4ccc(S(=O)(=O)N[C@H](C(=O)O)C(C)C)cc4)cc3)c(C)c12` [Example 96, N-[(4′-{[(3-methyl-4-vinyl-1-benzofuran-2-yl)carbonyl]amino}-1,1′-biphenyl-4-yl)sulfonyl]-L-valine] were, in that order, 0.625 µM and 0.0044 µM.
On the same counts, the results for `CC(C)[C@H](NS(=O)(=O)c1ccc(-c2ccc(NC(=O)c3cc4cc(NS(=O)(=O)c5ccccc5)ccc4o3)cc2)cc1)C(=O)O` [Example 10, 4′-[(5-Benzenesulfonylamino-benzofuran-2-carbonyl)-amino]-biphenyl-4-sulfonyl-L-valine] are 0.019 µM and 0.0034 µM.
In the case of `CCc1ccc2oc(C(=O)Nc3ccc(-c4ccc(S(=O)(=O)N[C@H](C(=O)O)C(C)C)cc4)cc3)c(C)c2c1OC(C)C` [Example 88, N-[(4′-{[(5-Ethyl-4-isopropoxy-3-methyl-1-benzofuran-2-yl)carbonyl]amino}-1,1′-biphenyl-4-yl)sulfonyl]-L-valine], the IC50 on MMP-2 was 7 µM; on MMP-13 (setting [1]), 0.027 µM.
The like results for `COC(=O)COc1cccc2oc(C(=O)Nc3ccc(-c4ccc(S(=O)(=O)N[C@H](C(=O)O)C(C)C)cc4)cc3)c(C)c12` [Example 158, L-2-{4′-[(4-Methoxycarbonylmethoxy-3-methyl-benzofuran-2-carbonyl)-amino]-biphenyl-4-sulfonylamino}-3-methyl-butyric acid] were, in that order, 1.84 µM and 0.0087 µM.
Consider `Cc1c(C(=O)Nc2ccc(-c3ccc(S(=O)(=O)N[C@H](C(=O)O)C(C)C)cc3)cc2)oc2cccc(C#CCC(C)C)c12` [Example 28, L-3-Methyl-2-(4′-{[3-methyl-4-(4-methyl-pent-1-ynyl)-benzofuran-2-carbonyl]-amino}-biphenyl-4-sulfonylamino)-butyric acid], for which the figures for the IC50 on MMP-2 and at MMP-13 (setting [1]) were 6.64 µM and 0.047 µM, respectively.
On the same counts, the results for `CC(=O)c1cccc2oc(C(=O)Nc3ccc(-c4ccc(S(=O)(=O)N[C@H](C(=O)O)C(C)C)cc4)cc3)c(C)c12` [Example 94, N-[(4′-{[(4-Acetyl-3-methyl-1-benzofuran-2-yl)carbonyl]amino}-1,1′-biphenyl-4-yl)sulfonyl]-L-valine] are 0.673 µM and 0.0045 µM.
On to `CC(C)C[C@H](NS(=O)(=O)c1ccc(-c2ccc(NC(=O)c3cc4ccccc4o3)cc2)cc1)C(=O)O` [Example 18, N-({4′-[(1-Benzofuran-2-ylcarbonyl)amino]-1,1′-biphenyl-4-yl}sulfonyl)-L-leucine], for which the IC50 at MMP-2 stood at 0.0084 µM; on MMP-13 (setting [1]), 0.0022 µM.
On the same counts, the results for `Cc1c(C(=O)Nc2ccc(-c3ccc(S(=O)(=O)N[C@H](C(=O)O)C(C)C)cc3)cc2)oc2cccc(OCc3cccnc3)c12` [Example 160, L-3-Methyl-2-(4′-{[3-methyl-4-(pyridin-3-ylmethoxy)-benzofuran-2-carbonyl]-amino}-biphenyl-4-sulfonylamino)-butyric acid] are 4.55 µM and 0.0095 µM.
The like results for `CC(=O)Nc1ccc2oc(C(=O)Nc3ccc(-c4ccc(S(=O)(=O)NC(C(=O)O)C(C)C)cc4)cc3)cc2c1` (stereo in doubt) [Example 9, N-{[4′-({[5-(acetylamino)-1-benzofuran-2-yl]carbonyl}amino)-1,1′-biphenyl-4-yl]sulfonyl}-L-valine] were, in that order, 0.004 µM and 0.0013 µM.
With `COc1ccc2oc(C(=O)Nc3ccc(-c4ccc(S(=O)(=O)N[C@H](C(=O)O)C(C)C)cc4)cc3)cc2c1` [Example 104, N-[(4′-{[(5-methoxy-1-benzofuran-2-yl)carbonyl]amino}-1,1′-biphenyl-4-yl)sulfonyl]-L-valine], the values for the IC50 on MMP-2 and on MMP-13 (setting [1]) were 0.0015 µM and 0.0007 µM, respectively.
Regarding `Cc1c(C(=O)Nc2ccc(-c3ccc(S(=O)(=O)N[C@H](C(=O)O)C(C)C)cc3)nc2)oc2cccc(C#N)c12` [Example 40, L-2-(4-{5-[(4-Cyano-3-methyl-benzofuran-2-carbonyl)-amino]-pyridin-2-yl}-benzenesulfonylamino)-3-methyl-butyric acid], the results for the IC50 at MMP-2 and at MMP-13 (setting [1]) were 2.84 µM and 0.0162 µM, respectively.
As for `COc1c(C)ccc2oc(C(=O)Nc3ccc(-c4ccc(S(=O)(=O)N[C@H](C(=O)O)C(C)C)cc4)cc3)c(C)c12` [Example 125, (S)-2-{4′-[(5-Methyl-4-methoxy-3-methyl-benzofuran-2-carbonyl)-amino]-biphenyl-4-sulfonylamino}-3-methyl-butyric acid], the IC50 on MMP-2 is 1.61 µM; at MMP-13 (setting [1]), 0.0049 µM.
The like results for `CCc1ccc2oc(C(=O)Nc3ccc(-c4ccc(S(=O)(=O)N[C@H](C(=O)O)C(C)C)cc4)cc3)c(C)c2c1O` [Example 90, N-[(4′-{[(5-Ethyl-4-hydroxy-3-methyl-1-benzofuran-2-yl)carbonyl]amino}-1,1′-biphenyl-4-yl)sulfonyl]-L-valine] were, in that order, 1.76 µM and 0.0071 µM.
The like results for `Cc1c(C(=O)Nc2ccc(-c3ccc(S(=O)(=O)N[C@H](C(=O)O)C(C)C)cc3)cc2)oc2cccc(C#CC(C)(C)C)c12` [Example 34, L-2-(4′-{[4-(3,3-Dimethyl-but-1-ynyl)-3-methyl-benzofuran-2-carbonyl]-amino}-biphenyl-4-sulfonylamino)-3-methyl-butyric acid] were, in that order, 2.5 µM and 0.152 µM.
On the same counts, the results for `CC(=O)c1ccc2oc(C(=O)Nc3ccc(-c4ccc(S(=O)(=O)N[C@H](C(=O)O)C(C)C)cc4)cc3)c(C)c2c1O` [Example 123, (S)-2-{4′-[(5-Acetyl-4-hydroxy-3-methyl-benzofuran-2-carbonyl)-amino]-biphenyl-4-sulfonylamino}-3-methyl-butyric acid] are 0.063 µM and 0.0032 µM.
Consider `CC(C)[C@H](NS(=O)(=O)c1ccc(-c2ccc(NC(=O)c3nc4cc(Cl)ccc4s3)cc2)cc1)C(=O)O` [Example 130, (S)-3-Methyl-2-{4′-[(5-chloro-benzothiazole-2-carbonyl)-amino]-biphenyl-4-sulfonylamino}-butyric acid], for which the IC50 on MMP-2 was determined as 0.0259 µM; at MMP-13 (setting [1]), 0.002 µM.
The like results for `Cc1c(C(=O)Nc2ccc(-c3ccc(S(=O)(=O)N[C@H](C(=O)O)C(C)C)cc3)cc2)oc2ccc(Br)cc12` [Example 45, 2-{4′-[(5-Bromo-3-methyl-benzofuran-2-carbonyl)-amino]-biphenyl-4-sulfonylamino}-3-methyl-butyric acid] were, in that order, 0.081 µM and 0.003 µM.
With `Cc1c(C(=O)Nc2ccc(-c3ccc(S(=O)(=O)N[C@@H](C(=O)O)C(C)C)cc3)cc2)oc2cccc(NS(C)(=O)=O)c12` [Example 41, D-2-{4-[(4-Methanesulfonylamino-3-methyl-benzofuran-2-carbonyl)-amino]-biphenyl-4-sulfonylamino}-3-methyl-butyric acid], the IC50 is 1.46 µM on MMP-2 and 0.0085 µM on MMP-13 (setting [1]).
The like results for `COc1c(Br)ccc2oc(CNc3ccc(-c4ccc(S(=O)(=O)N[C@H](C(=O)O)C(C)C)cc4)cc3)c(C)c12` [Example 150, N-[(4′-{[(5-bromo-4-methoxy-3-methyl-1-benzofuran-2-yl)methyl]amino}-1,1′-biphenyl-4-yl)sulfonyl]-L-valine] were, in that order, 0.198 µM and 0.0081 µM.
As to `Cc1c(C(=O)Nc2ccc(-c3ccc(S(=O)(=O)N[C@H](C(=O)O)C(C)C)cc3)cc2)oc2cccc(N3CCOCC3)c12` [Example 114, (S)-3-methyl-2-{4′-[(3-methyl-4-morpholin-4-yl-benzofuran-2-carbonyl)-amino]-biphenyl-4-sulfonylamino}-butyric acid], the IC50 on MMP-2 is 1.63 µM; on MMP-13 (MMP-13 IC50, recombinant human catalytic domain of MMP-13), 0.032 µM.
